Holding throughout (assay type): cell-based
Assay [1] addresses T1, TPαR (Homo sapiens, UniProt P21731).
T1 construct: host or cells: HEK293
T1 sequence (P21731 1-343): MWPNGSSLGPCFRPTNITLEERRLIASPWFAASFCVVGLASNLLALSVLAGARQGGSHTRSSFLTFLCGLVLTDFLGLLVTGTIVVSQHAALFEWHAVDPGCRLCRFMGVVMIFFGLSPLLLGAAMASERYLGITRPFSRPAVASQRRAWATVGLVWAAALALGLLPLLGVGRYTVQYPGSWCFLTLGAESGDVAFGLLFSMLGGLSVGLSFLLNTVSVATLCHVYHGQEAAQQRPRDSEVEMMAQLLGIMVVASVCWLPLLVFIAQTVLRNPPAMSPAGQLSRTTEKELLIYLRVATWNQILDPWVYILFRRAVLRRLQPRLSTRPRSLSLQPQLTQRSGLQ
Description: Polycistronic vector biosensor (GRK2-GFP, Rluc-Gγ5, Gβ1) co-transfected with TPαR and Gα11. The following applies: FIG. 11C. The text has this:
Expression vectors: Biosensor constructs. Rluc-Gγ5 and GFP-Gγ: Plasmid encoding the fusion proteins Rluc-Gy1 to Gγ13 and GFP1O-Gγ5 were was obtained by PCR amplification of the Gγ coding sequences which were then fused in frame at its N-terminus to the humanized Renilla luciferase II (hRlucII) sequence (a variant of the hRluc previously reported (Leduc, Breton et al. 2009), SEQ ID NO:39) into pcDNA3.1 vector (linker sequence: GSAGT, SEQ ID NO: 33), or to the GFP10 (a variant form of the green fluorescent protein (GFP) previously reported (Mercier, Salahpour et al. 2002, SEQ ID NO:38). GRK2-GFP and GRK3-GFP: GRK2-GFP, GRK3-GFP, GRK2 Cterm (SEQ ID NO:50)-GFP, GRK3 Cterm (SEQ ID NO:51)-GFP were generated by PCR amplification of GRK2 and GRK3, which were then fused at their C-terminus to the GFP10 into pcDNA3.1 Zeo(+) vector, generating a linker of 11 amino acid residues between the GRK and the GFP10 protein (linker sequence: GSAGTGKLPAT, SEQ ID NO: 34). GFP-GRK2 and GFP-GRK3: […], GFP-GRK2 Cterm (SEQ ID NO:50), GFP-GRK3 Cterm (SEQ ID NO:51) were generated by PCR amplification of GRK2 and GRK3, which were then fused at their N-terminus to the GFP10 (SEQ ID NO:38) into pcDNA3.1 Zeo (+) vector, generating a linker of 7 amino acid residues between the GRK and the GFP10 protein (linker sequence: GSAGTGG, SEQ ID NO:52). […]

In assay [2] the target is T1, TPαR. Description: Rluc protein complementation assay (GRK2-Rluc F1/Rluc F2-Gγ5/Gβ1/Gα11), TPαR in HEK293 cells. To be noted: Rluc-PCA, FIG. 9B, read-out: EC50 of G11 protein activation (luminescence). The protocol:
Cell culture and transfections. Human embryonic kidney 293 (HEK293) cells were maintained in Dulbecco's Modified Eagle's Medium (DMEM) supplemented with 10% fetal bovine serum, 100 unit/ml penicillin/streptomycin at 37° C. in a humidified atmosphere with 5% CO2. Two days before the experiments, HEK293 cells were transfected with the indicated plasmids using poly-ethylenimine 25-kDa linear (PEI) as a transfecting agent (at a ratio of 3 to 1, PEI/DNA) (Hamdan, Rochdi et al. 2007), and then directly seeded in 96-well plates pre-treated with poly-L-ornithine hydrobromide or Poly-D-Lysine, at a density of 35,000 cells per well (for BRET and PCA assays in living cells), or 6-well plates at a density of 1,000,000 cells per well (for BRET assays on membrane preparations).
Protein complementation assays using RlucII fragments. Cells were washed twice with PBS, followed by Tyrode buffer addition. The cells were then pre-treated with the Rluc substrate, coelenterazine 400a, at a final concentration of 2.5 μM for 30 min at 37° C. The different ligands or vehicle were added for an additional 10 min. Luminescence values were then collected using a Mithras™ LB940 Multimode Microplate Reader, without any filters.

Assay [3] has as its target T2, thromboxane A2 receptor (TPαR) (Homo sapiens, UniProt P21731).
T2 construct: host or cells: HEK293
T2 sequence (P21731 1-343): T1 sequence (P21731 1-343)
Nature of the assay: βγIP-based BRET biosensor (GRK2-GFP/Rluc-Gγ5/Gβ1 plus indicated Gα), agonist activation of TPαR in HEK293 cells. To be noted: read-out: potency of G-protein activation (dose-response curve). The protocol:
Cell culture and transfections. Human embryonic kidney 293 (HEK293) cells were maintained in Dulbecco's Modified Eagle's Medium (DMEM) supplemented with 10% fetal bovine serum, 100 unit/ml penicillin/streptomycin at 37° C. in a humidified atmosphere with 5% CO2. […]
BRET assays in living cells. […] BRET values were then collected using a Mithras™ LB940 Multimode Microplate Reader or a TRISTAR® LB942 Multimode Microplate Reader, equipped with the following filters: 400 nm±70 nm (energy donor) and 515 nm±20 nm (energy acceptor). BRET values were determined by calculating the ratio of the light emitted by GFP (515 nm) over the light emitted by the Rluc (400 nm). To determine the % of activation (Stim as % of basal), BRET values obtained for the agonist treated cells where expressed as a percentage of the BRET values obtained with the corresponding cells treated with vehicle.
Kinetics experiments. BRET assays were performed as described previously, except that BRET readings were collected at regular intervals, 5 min after coelenterazine addition, while ligands and vehicle were injected to the cells after 30 sec of BRET measurements.
A general note: BRET reads energy transfer from a luciferase to a nearby fluorophore.

Like-named read-outs stand apart in the source and are kept apart here.

Regarding `CCCCC[C@H](O)/C=C/[C@@H]1[C@@H](C/C=C\CCCC(=O)O)[C@H]2CO[C@@H]1C2` [U-46619], the EC50 on TPαR [1] amounted to 4.3 nM; on TPαR [2] it was 8.4 nM; in assay [3] (G-protein printed as Gβ, FIG. 3C), 0.5 nM; in assay [3] (Gα15/16, FIG. 3C) it was 6.6 nM.

These data come from US10877036B2, “Biosensor based on Gβγ-interacting proteins to monitor G-protein activation” (priority 2014, dated 2020).
